One test has as its system Enterococcus faecium. As to the kind of experiment: Antibacterial activity against vancomycin-resistant Enterococcus faecium ATCC 51559 assessed as reduction in bacterial growth incubated for 18 hrs by spectrophotometry based microtiter broth dilution method. The conditions noted are these: ATCC 51559, 18 h. In kind it is functional. A general note: In broth dilution the organism is exposed to a series of concentrations in liquid medium.

Test [1] has as its system Staphylococcus aureus. As to the kind of experiment: Induction of cytoplasmic membrane depolarization in Staphylococcus aureus at 2 times of MIC for a period of 600 sec by DiSC3-5-fluorescence based assay. In kind it is functional, organism-based.
In a further test the test system is Escherichia coli. Put plainly: Induction of membrane integrity disruption in Escherichia coli at 2 times of MIC by propidium iodide staining based flow cytometry relative to control (reference value: 2.97 %). The class given is functional.
Test [2] relates to Staphylococcus aureus. Put plainly: Induction of cytoplasmic membrane depolarization in Staphylococcus aureus at 2 times of MIC within 4 mins by SYTOX green-based assay. The class given is functional, organism-based.
The next test concerns Pseudomonas aeruginosa. Put plainly: Antibacterial activity against multidrug-resistant Pseudomonas aeruginosa CCARM 2095 assessed as reduction in bacterial growth incubated for 72 hrs by spectrophotometry. The conditions noted are these: CCARM 2095, 72 h. The class given is functional.
Test [3] has as its system Staphylococcus aureus. As to the kind of experiment: Antibacterial activity against methicillin-resistant Staphylococcus aureus CCARM 3089 assessed as reduction in bacterial growth incubated for 72 hrs by spectrophotometry. The class given is functional. As to conditions: CCARM 3089, 72 h.

MIC and Activity data for four compounds are collected here from ChEMBL document CHEMBL4406836, “The design of a cell-selective fowlicidin-1-derived peptide with both antimicrobial and anti-inflammatory activities” (Eur J Med Chem, 2019).

Each structure is given as a SMILES string. Converted amounts (≈) assume the structure as drawn. The source made the active and inactive calls. No cut-off for these calls is given here.

As for `CC[C@H](C)[C@H](NC(=O)CN)C(=O)NCC(=O)N[C@@H](C)C(=O)N[C@H](C(=O)N[C@@H](CC(C)C)C(=O)N[C@@H](CCCCN)C(=O)N[C@H](C(=O)N[C@@H](CC(C)C)C(=O)N[C@H](C(=O)N[C@H](C(=O)NCC(=O)N[C@@H](CC(C)C)C(=O)N1CCC[C@H]1C(=O)N[C@@H](C)C(=O)N[C@@H](CC(C)C)C(=O)N[C@H](C(=O)N[C@@H](CO)C(=O)N[C@@H](Cc1c[nH]c2ccccc12)C(=O)N[C@H](C(=O)N[C@@H](CCCCN)C(=O)N[C@@H](CCCNC(=N)N)C(=O)N[C@@H](CCCCN)C(=O)N[C@@H](CCCNC(=N)N)C(=O)N[C@@H](CCC(N)=O)C(=O)N[C@@H](CCC(N)=O)C(N)=O)[C@@H](C)CC)[C@@H](C)CC)[C@@H](C)O)[C@@H](C)O)C(C)C)C(C)C` [MELITTIN], in the test on Enterococcus faecium, the MIC is 8 µM (≈ 22.8 µg/mL). Moreover, the outcome in the test with Staphylococcus aureus [1] and in the test with Staphylococcus aureus [2] was Active. The compound further returned an Activity in the test with Escherichia coli of 75.38%.

Turning to `O=C(O)c1cn(C2CC2)c2cc(N3CCNCC3)c(F)cc2c1=O` [CIPROFLOXACIN], the MIC in the test with Pseudomonas aeruginosa worked out at 512 µM (≈ 170 µg/mL); in the test with Staphylococcus aureus [3], 1020 µM (≈ 339 µg/mL).

In the case of `Cc1onc(-c2ccccc2)c1C(=O)N[C@@H]1C(=O)N2[C@@H]1SC(C)(C)[C@@H]2C(=O)O` [OXACILLIN], the MIC in the test with Pseudomonas aeruginosa and with Staphylococcus aureus [3] was 512 µM (≈ 206 µg/mL) each time.

Regarding `O=C(N[C@H](CO)[C@H](O)c1ccc([N+](=O)[O-])cc1)C(Cl)Cl` [CHLORAMPHENICOL], the MIC in the test on Pseudomonas aeruginosa came out at 1020 µM (≈ 331 µg/mL); in the test on Staphylococcus aureus [3], 128 µM (≈ 41.4 µg/mL).

The term MIC denotes the lowest concentration that inhibits growth of the organism.
